Data as given in US7902204B2 (priority 2003, dated 2011).

What follows are molecules tested on HIV-1 single-round infectious reporter virus (assay: Single-round infectious HIV-1 luciferase reporter virus infection of HeLa CD4 CCR5 cells). Settings: Human immunodeficiency virus 1, HeLa-CD4/CCR5, 72 h, read-out: EC50 Group from Table 1.
Assay type: cell-based
Protocol: • Virus production—Human embryonic Kidney cell line, 293, propagated in Dulbecco's Modified Eagle Medium (Life Technologies, Gaithersburg, Md.) containing 10% fetal Bovine serum (FBS, Sigma, St. Louis, Mo.). • Virus infection—Human epithelial cell line, HeLa, expressing the HIV-1 receptors CD4 and CCR5 was propagated in Dulbecco's Modified Eagle Medium (Life Technologies, Gaithersburg, Md.) containing 10% fetal Bovine serum (FBS, Sigma, St. Louis, Mo.) and supplemented with 0.2 mg/mL Geneticin (Life Technologies, Gaithersburg, Md.) and 0.4 mg/mL Zeocin (Invitrogen, Carlsbad, Calif.). Virus-Single-round infectious reporter virus was produced by co-transfecting human embryonic Kidney 293 cells with an HIV-1 envelope DNA expression vector and a proviral cDNA containing an envelope deletion mutation and the luciferase reporter gene inserted in place of HIV-1 nef sequences (Chen et al, Ref 41). Transfections were performed using lipofectAMINE PLUS reagent as described by the manufacturer (Life Technologies, Gaithersburg, Md.). Experiment • 1. Compound was added to HeLa CD4 CCR5 cells plated in 96 well plates at a cell density of 1×10^4 cells per well in 100 μl Dulbecco's Modified Eagle Medium containing 10% fetal Bovine serum at a concentration of <20 μM. • 2. 100 μl of single-round infectious reporter virus in Dulbecco's Modified Eagle Medium was then added to the plated cells and compound at an approximate multiplicity of infection (MOI) of 0.01, resulting in a final volume of 200 μl per well and a final compound concentration of <10 μM. • 3. Samples were harvested 72 h after infection. • 4. Viral infection was monitored by measuring luciferase expression from viral DNA in the infected cells using a luciferase reporter gene assay kit (Roche Molecular Biochemicals, Indianapolis, Ind.). Infected cell supernatants were removed and 50 μl of Dulbecco's Modified Eagle Medium (without phenol red) and 50 μl of luciferase assay reagent reconstituted as described by the manufacturer (Roche Molecular Biochemicals, Indianapolis, Ind.) was added per well. Luciferase activity was then quantified by measuring luminescence using a Wallac microbeta scintillation counter. • 5. The percent inhibition for each compound was calculated by quantifying the level of luciferase expression in cells infected in the presence of each compound as a percentage of that observed for cells infected in the absence of compound and subtracting such a determined value from 100. • 6. An EC50 provides a method for comparing the antiviral potency of the compounds of this invention. The effective concentration for fifty percent inhibition (EC50) was calculated with the Microsoft Excel Xlfit curve fitting software. For each compound, curves were generated from percent inhibition calculated at 10 different concentrations by using a four paramenter logistic model (model 205). Table 1 is the key for the data in Tables 2-4.
N#CC(C(=O)c1c[nH]c2c(Cl)ncnc12)N1CCN(C(=O)c2ccccc2)CC1 (stereo not shown) [Example 1, 2-(4-Benzoyl-piperazin-1-yl)-3-(4-chloro-5H-pyrrolo [3,2-d]pyrimidin-7-yl)-3-oxo-propionitrile] showed an EC50 of less than 1 µM. O=C(C(=O)N1CCN(C(=O)c2ccccc2)CC1)c1c[nH]c2c(Cl)ncnc12 [Example 2, 1-(4-Benzoyl-piperazin-1-yl)-2-(4-chloro-5H-pyrrolo[3,2-d]pyrimidin-7-yl)-ethane-1,2-dione] was tested, and the EC50 was less than 1 µM. Molecule Cc1ccn(-c2ncnc3c(C(=O)C(=O)N4CCN(C(=O)c5ccccc5)CC4)c[nH]c23)n1 [Example 3, 1-(4-Benzoyl-piperazin-1-yl)-2-[4-(3-methyl-pyrazol-1-yl)-5H-pyrrolo[3,2-d]pyrimidin-7-yl]-ethane-1,2-dione] has an EC50 of less than 1 µM. In the case of Cc1cnn(-c2ncnc3c(C(=O)C(=O)N4CCN(C(=O)c5ccccc5)CC4)c[nH]c23)c1 [Example 4, 1-(4-Benzoyl-piperazin-1-yl)-2-[4-(4-methyl-pyrazol-1-yl)-5H-pyrrolo[3,2-d]pyrimidin-7-yl]-ethane-1,2-dione], the EC50 is reported as less than 1 µM. In the case of COc1ncnc2c(C(=O)C(=O)N3CCN(C(=O)c4ccccc4)CC3)c[nH]c12 [Example 5, 1-(4-Benzoyl-piperazin-1-yl)-2-(4-methoxy-5H-pyrrolo[3,2-d]pyrimidin-7-yl)-ethane-1,2-dione], the EC50 is reported as less than 1 µM. O=C(C(=O)N1CCN(C(=O)c2ccccc2)CC1)c1c[nH]c2c(-n3cccn3)ncnc12 [Example 6, 1-(4-Benzoyl-piperazin-1-yl)-2-(4-pyrazol-1-yl-5H -pyrrolo[3,2-d]pyrimidin-7-yl)-ethane-1,2-dione] showed an EC50 of less than 1 µM. Work on Cc1ncn(-c2ncnc3c(C(=O)C(=O)N4CCN(C(=O)c5ccccc5)CC4)c[nH]c23)n1 [Example 7, 1-(4-Benzoyl-piperazin-1-yl)-2-[4-(3-methyl-[1,2,4]triazol-1-yl)-5H-pyrrolo[3,2-d]pyrimidin-7-yl]-ethane-1,2-dione] yielded an EC50 of less than 1 µM. With O=C(C(=O)N1CCN(C(=O)c2ccccc2)CC1)c1c[nH]c2c(-n3nccn3)ncnc12 [Example 8, 1-(4-(2H-1,2,3-Triazol-2-yl)-5H-pyrrolo[3,2-d]pyrimidin-7-yl)-2-(4-benzoylpiperazin-1-yl)ethane-1,2-dione] the EC50 was less than 1 µM. O=C(O)c1ccn(-c2ncnc3c(C(=O)C(=O)N4CCN(C(=O)c5ccccc5)CC4)c[nH]c23)n1 [Example 9, 1-{7-[2-(4-Benzoyl-piperazin-1-yl)-2-oxo-acetyl]-5H-pyrrolo[3,2-d]pyrimidin-4-yl}-1H-pyrazole-3-carboxylic Acid] gave an EC50 of less than 1 µM. In the case of CCOc1ncnc2c(C(=O)C(=O)N3CCN(C(=O)c4ccccc4)CC3)c[nH]c12 [Example 10, 1-(4-Benzoylpiperazin-1-yl)-2-(4-ethoxy-5H-pyrrolo[3,2-d]pyrimidin-7-yl)ethane-1,2-dione], the EC50 is reported as less than 1 µM. CC(=O)c1ncnc2c(C(=O)C(=O)N3CCN(C(=O)c4ccccc4)CC3)c[nH]c12 [Example 11, 1-(4-Acetyl-5H-pyrrolo[3,2-d]pyrimidin-7-yl)-2-(4-benzoylpiperazin-1-yl)ethane-1,2-dione] was tested, and the EC50 was less than 1 µM. With N#Cc1ncnc2c(C(=O)C(=O)N3CCN(C(=O)c4ccccc4)CC3)c[nH]c12 [Example 12, 7-(2-(4-Benzoylpiperazin-1-yl)-2-oxoacetyl)-5H-pyrrolo[3,2-d]pyrimidine-4-carbonitrile] the EC50 was less than 1 µM. CN(C)C(=O)c1ccn(-c2ncnc3c(C(=O)C(=O)N4CCN(C(=O)c5ccccc5)CC4)c[nH]c23)n1 [Example 13, 1-(7-(2-(4-Benzoylpiperazin-1-yl)-2-oxoacetyl)-5H -pyrrolo[3,2-d]pyrimidin-4-yl)-N,N-dimethyl-1H-pyrazole-3-carboxamide] was tested, and the EC50 was less than 1 µM. Work on CN1CCN(C(=O)c2ccn(-c3ncnc4c(C(=O)C(=O)N5CCN(C(=O)c6ccccc6)CC5)c[nH]c34)n2)CC1 [Example 14, 1-(4-Benzoylpiperazin-1-yl)-2-(4-(3-(1-methylpiperazine-4-carbonyl)-1H-pyrazol-1-yl)-5H-pyrrolo[3,2-d]pyrimidin-7-yl)ethane-1,2-dione] yielded an EC50 of less than 1 µM. For O=C(C(=O)N1CCN(C(=O)c2ccccc2)CC1)c1c[nH]c2c(-n3ccc(-c4ccccc4)n3)ncnc12 [Example 15, 1-(4-Benzoylpiperazin-1-yl)-2-(4-(3-phenyl-1H -pyrazol-1-yl)-5H-pyrrolo[3,2-d]pyrimidin-7-yl)ethane-1,2-dione], the EC50 was less than 1 µM. With O=C(C(=O)N1CCN(C(=O)c2ccccc2)CC1)c1c[nH]c2c(-n3ccc(-c4ccc(F)cc4)n3)ncnc12 [Example 16, 1-(4-Benzoylpiperazin-1-yl)-2-(4-(3-(4-fluorophenyl)-1H-pyrazol-1-yl)-5H-pyrrolo[3,2-d]pyrimidin-7-yl)ethane-1,2-dione] the EC50 was less than 1 µM. COc1ccc(-c2ccn(-c3ncnc4c(C(=O)C(=O)N5CCN(C(=O)c6ccccc6)CC5)c[nH]c34)n2)cc1 [Example 17, 1-(4-Benzoylpiperazin-1-yl)-2-(4-(3-(4-methoxyphenyl)-1H-pyrazol-1-yl)-5H-pyrrolo[3,2-d]pyrimidin-7-yl)ethane-1,2-dione] showed an EC50 of less than 1 µM. Molecule COc1ccccc1-c1ccn(-c2ncnc3c(C(=O)C(=O)N4CCN(C(=O)c5ccccc5)CC4)c[nH]c23)n1 [Example 18, 1-(4-Benzoylpiperazin-1-yl)-2-(4-(3-(2-methoxyphenyl)-1H-pyrazol-1-yl)-5H-pyrrolo[3,2-d]pyrimidin-7-yl)ethane-1,2-dione] has an EC50 of less than 1 µM. In the case of O=C(C(=O)N1CCN(C(=O)c2ccccc2)CC1)c1c[nH]c2c(-n3ccc(-c4cccc(C(F)(F)F)c4)n3)ncnc12 [Example 19, 1-(4-Benzoylpiperazin-1-yl)-2-(4-(3-(3-(trifluoromethyl)phenyl)-1H-pyrazol-1-yl)-5H-pyrrolo[3,2-d]pyrimidin-7-yl)ethane-1,2-dione], the EC50 is reported as less than 1 µM. With O=C(C(=O)N1CCN(C(=O)c2ccccc2)CC1)c1c[nH]c2c(-n3cncn3)ncnc12 [Example 20, 1-(4-(1H-1,2,4-Triazol-1-yl)-5H-pyrrolo[3,2-d]pyrimidin-7-yl)-2-(4-benzoylpiperazin-1-yl)ethane-1,2-dione] the EC50 was less than 1 µM. In the case of O=C(C(=O)N1CCN(C(=O)c2ccccc2)CC1)c1c[nH]c2c(-n3ccnn3)ncnc12 [Example 21, 1-(4-(1H-1,2,3-Triazol-1-yl)-5H-pyrrolo[3,2-d]pyrimidin-7-yl)-2-(4-benzoylpiperazin-1-yl)ethane-1,2-dione], the EC50 is reported as less than 1 µM. Work on O=C(C(=O)N1CCN(C(=O)c2ccccc2)CC1)c1c[nH]c2c(-c3cc[nH]n3)ncnc12 [Example 22, 1-(4-(1H-Pyrazol-3-yl)-5H-pyrrolo[3,2-d]pyrimidin-7-yl)-2-(4-benzoylpiperazin-1-yl)ethane-1,2-dione] yielded an EC50 of less than 1 µM. O=C(C(=O)N1CCN(C(=O)c2ccccc2)CC1)c1c[nH]c2c(-c3ccccn3)ncnc12 [Example 24, 1-(4-Benzoylpiperazin-1-yl)-2-(4-(pyridin-2-yl)-5H -pyrrolo[3,2-d]pyrimidin-7-yl)ethane-1,2-dione] gave an EC50 of less than 1 µM. For O=C(C(=O)N1CCN(C(=O)c2ccccc2)CC1)c1c[nH]c2c(-c3cccnc3)ncnc12 [Example 25, 1-(4-Benzoylpiperazin-1-yl)-2-(4-(pyridin-3-yl)-5H -pyrrolo[3,2-d]pyrimidin-7-yl)ethane-1,2-dione], the EC50 was less than 1 µM. O=C(C(=O)N1CCN(C(=O)c2ccccc2)CC1)c1c[nH]c2c(-c3ccncc3)ncnc12 [Example 26, 1-(4-Benzoylpiperazin-1-yl)-2-(4-(pyridin-4-yl)-5H -pyrrolo[3,2-d]pyrimidin-7-yl)ethane-1,2-dione] showed an EC50 of less than 1 µM. Work on O=C(C(=O)N1CCN(C(=O)c2ccccc2)CC1)c1c[nH]c2c(-c3cnccn3)ncnc12 [Example 27, 1-(4-Benzoylpiperazin-1-yl)-2-(4-(pyrazin-2-yl)-5H -pyrrolo[3,2-d]pyrimidin-7-yl)ethane-1,2-dione] yielded an EC50 of less than 1 µM. O=C(C(=O)N1CCN(C(=O)c2ccccc2)CC1)c1c[nH]c2c(-c3cncnc3)ncnc12 [Example 28, 1-(4-Benzoylpiperazin-1-yl)-2-(4-(pyrimidin-5-yl)-5H-pyrrolo[3,2-d]pyrimidin-7-yl)ethane-1,2-dione] gave an EC50 of less than 1 µM. O=C(C(=O)N1CCN(C(=O)c2ccccc2)CC1)c1c[nH]c2c(-c3ccnnc3)ncnc12 [Example 29, 1-(4-Benzoylpiperazin-1-yl)-2-(4-(pyridazin-4-yl)-5H-pyrrolo[3,2-d]pyrimidin-7-yl)ethane-1,2-dione] showed an EC50 of less than 1 µM.
